One compound from patent US7863300B2, “Process to prepare pioglitazone via several novel intermediates” (Cadila Healthcare Limited, priority 2002, dated 2011) can be followed below.

In general, melting point refers to the temperature of the solid-liquid transition. Compound `CCc1ccc(C(O)COc2ccc(C=O)cc2)nc1` (stereo not shown) [Compound 9a, 4-[2-(5-Ethyl-pyridin-2-yl)-2-hydroxy-ethoxy]-benzaldehyde] came in with a melting point of 83 °C.
